Source: US20200216441A1, “PESTICIDALLY ACTIVE HETEROCYCLIC DERIVATIVES WITH SULFUR CONTAINING SUBSTITUENTS” (SYNGENTA PARTICIPATIONS AG, priority 2017, published 2020)

What was measured:
[1] = test system: Euschistus heros (Neotropical Brown Stink Bug); experiment: whole plant or invertebrate; format: in vivo; settings: 120 h, application rate of 200 ppm, N2 nymphs on sprayed soybean leaves, 5 days after infestation, read-out: effect in at least one of the two categories (mortality or growth inhibition)
[2] = test system: Myzus persicae (Green Peach Aphid); experiment: whole plant or invertebrate; format: in vivo; settings: 144 h, test rate of 24 ppm, systemic, roots of infested pea seedlings in test solution, 6 days
[3] = test system: Plutella xylostella (Diamond Back Moth); experiment: whole plant or invertebrate; format: in vivo; settings: 120 h, application rate of 200 ppm, L2 larvae on treated artificial diet, 5 days after infestation, read-out: effect in at least one of the two categories (mortality or growth inhibition)
[4] = test system: Myzus persicae (Green Peach Aphid); experiment: whole plant or invertebrate; settings: foliar, 144 h
[5] = test system: Diabrotica Balteata (Corn Root Worm); experiment: Diabrotica balteata (Corn Root Worm); settings: in Zea mays, 96 h, read-out: effect in at least one of the two categories (mortality or growth inhibition)
[6] = test system: Spodoptera littoralis (Egyptian Cotton Leaf Worm); experiment: whole plant or invertebrate; settings: in Gossypium barbadense, foliar, 72 h, read-out: control (mortality, anti-feeding effect, growth inhibition)

CCS(=O)(=O)c1cc(OC2COC2)cnc1-c1nc2cc(C(F)(F)F)ncc2n1C [Compound P1, 2-[3-ethylsulfonyl-5-(oxetan-3-yloxy)-2-pyridyl]-3-methyl-6-(trifluoromethyl)imidazo[4,5-c]pyridine]
≥ 80%: percent effect (mortality or growth inhibition) at 200 ppm [1] | mortality at 24 ppm [2] | percent effect (mortality or growth inhibition) at 200 ppm [3] | mortality at 200 ppm [4] | mortality at 200 ppm [5]

CCS(=O)(=O)c1cc(OC2(C)COC2)cnc1-c1nc2cc(C(F)(F)F)ncc2n1C [Compound P4, 2-[3-ethylsulfonyl-5-(3-methyloxetan-3-yl)oxy-2-pyridyl]-3-methyl-6-(trifluoromethyl)imidazo[4,5-c]pyridine]
≥ 80%: percent effect (mortality or growth inhibition) at 200 ppm [1] | mortality at 24 ppm [2] | percent effect (mortality or growth inhibition) at 200 ppm [3] | mortality at 200 ppm [4] | mortality at 200 ppm [5]

CCS(=O)(=O)c1cc(OC(F)(F)C(=O)N(C)C)cnc1-c1nc2cc(C(F)(F)F)ncc2n1C [Compound P6, 2-[[5-ethylsulfonyl-6-[3-methyl-6-(trifluoromethyl)imidazo[4,5-c]pyridin-2-yl]-3-pyridyl]oxy]-2,2-difluoro-N,N-dimethyl-acetamide]
≥ 80%: percent effect (mortality or growth inhibition) at 200 ppm [1] | mortality at 24 ppm [2] | percent effect (mortality or growth inhibition) at 200 ppm [3] | mortality at 200 ppm [4] | mortality at 200 ppm [5]

CCS(=O)(=O)c1cc(OCCS(C)(=O)=O)cnc1-c1nc2cc(C(F)(F)F)ncc2n1C [Compound P7, 2-[3-ethylsulfonyl-5-(2-methylsulfonylethoxy)-2-pyridyl]-3-methyl-6-(trifluoromethyl)imidazo[4,5-c]pyridine]
≥ 80%: percent effect (mortality or growth inhibition) at 200 ppm [1] | mortality at 24 ppm [2] | mortality at 200 ppm [4]

CCSc1cc(OC(C)C)cnc1-c1nc2cc(C(F)(F)F)ncc2n1C [Compound P27, 2-(3-ethylsulfanyl-5-isopropoxy-2-pyridyl)-3-methyl-6-(trifluoromethyl)imidazo[4,5-c]pyridine]
≥ 80%: percent effect (mortality or growth inhibition) at 200 ppm [3] | mortality at 200 ppm [4] | mortality at 200 ppm [6] | mortality at 200 ppm [5]

CCS(=O)(=O)c1cc(OC(C)(C)COC)cnc1-c1nc2cc(C(F)(F)F)ncc2n1C [Compound P48, 2-[3-ethylsulfonyl-5-(2-methoxy-1,1-dimethyl-ethoxy)-2-pyridyl]-3-methyl-6-(trifluoromethyl)imidazo[4,5-c]pyridine]
≥ 80%: mortality at 24 ppm [2] | percent effect (mortality or growth inhibition) at 200 ppm [3] | mortality at 200 ppm [4]

CCS(=O)(=O)c1cc(OC(C)(C)CS(C)(=O)=O)cnc1-c1nc2cc(C(F)(F)F)ncc2n1C [Compound P49, 2-[5-(1,1-dimethyl-2-methylsulfonyl-ethoxy)-3-ethylsulfonyl-2-pyridyl]-3-methyl-6-(trifluoromethyl)imidazo[4,5-c]pyridine]
≥ 80%: percent effect (mortality or growth inhibition) at 200 ppm [1] | mortality at 24 ppm [2] | percent effect (mortality or growth inhibition) at 200 ppm [3] | mortality at 200 ppm [4]

CCS(=O)(=O)c1cc(OCC2(C)COC2)cnc1-c1nc2cc(C(F)(F)F)ncc2n1C [Compound P54, 2-[3-ethylsulfonyl-5-[(3-methyloxetan-3-yl)methoxy]-2-pyridyl]-3-methyl-6-(trifluoromethyl)imidazo[4,5-c]pyridine]
≥ 80%: percent effect (mortality or growth inhibition) at 200 ppm [1] | mortality at 24 ppm [2] | mortality at 200 ppm [4]

CCS(=O)(=O)c1cc(OCC(C)=O)cnc1-c1nc2cc(C(F)(F)F)ncc2n1C [Compound P65, 1-[[5-ethylsulfonyl-6-[3-methyl-6-(trifluoromethyl)imidazo[4,5-c]pyridin-2-yl]-3-pyridyl]oxy]propan-2-one]
≥ 80%: percent effect (mortality or growth inhibition) at 200 ppm [1] | mortality at 24 ppm [2] | percent effect (mortality or growth inhibition) at 200 ppm [3] | mortality at 200 ppm [4] | mortality at 200 ppm [5]

CCS(=O)(=O)c1cc(OCC2CCC2)cnc1-c1nc2cc(C(F)(F)F)ncc2n1C [Compound P69, 2-[5-(cyclobutylmethoxy)-3-ethylsulfonyl-2-pyridyl]-3-methyl-6-(trifluoromethyl)imidazo[4,5-c]pyridine]
≥ 80%: percent effect (mortality or growth inhibition) at 200 ppm [1] | mortality at 200 ppm [4] | mortality at 200 ppm [6] | mortality at 200 ppm [5]

CCSc1cc(OC(C)C)cnc1-c1nc2cc(S(=O)(=O)C(F)(F)F)ncc2n1C [Compound P73, 2-(3-ethylsulfanyl-5-isopropoxy-2-pyridyl)-3-methyl-6-(trifluoromethylsulfonyl)imidazo[4,5-c]pyridine]
≥ 80%: percent effect (mortality or growth inhibition) at 200 ppm [1] | percent effect (mortality or growth inhibition) at 200 ppm [3] | mortality at 200 ppm [4] | mortality at 200 ppm [6] | mortality at 200 ppm [5]

CCSc1cc(OC(C)C)cnc1-c1nc2cc(SC(F)(F)F)ncc2n1C [Compound P74, 2-(3-ethylsulfanyl-5-isopropoxy-2-pyridyl)-3-methyl-6-(trifluoromethylsulfanyl)imidazo[4,5-c]pyridine]
≥ 80%: percent effect (mortality or growth inhibition) at 200 ppm [1] | percent effect (mortality or growth inhibition) at 200 ppm [3] | mortality at 200 ppm [4] | mortality at 200 ppm [6] | mortality at 200 ppm [5]

CCS(=O)(=O)c1cc(OCS(C)(=N)=O)cnc1-c1nc2cc(C(F)(F)F)ncc2n1C (stereo not drawn) [Compound P80, [5-ethylsulfonyl-6-[3-methyl-6-(trifluoromethyl)imidazo[4,5-c]pyridin-2-yl]-3-pyridyl]oxymethyl-imino-methyl-oxo-$|^6-sulfane]
≥ 80%: percent effect (mortality or growth inhibition) at 200 ppm [1] | mortality at 24 ppm [2] | mortality at 200 ppm [4]

C#CC(C)(C)Oc1cnc(-c2nc3cc(C(F)(F)F)ncc3n2C)c(SCC)c1 [Compound P82, 2-[5-(1,1-dimethylprop-2-ynoxy)-3-ethylsulfanyl-2-pyridyl]-3-methyl-6-(trifluoromethyl)imidazo[4,5-c]pyridine]
≥ 80%: percent effect (mortality or growth inhibition) at 200 ppm [1] | mortality at 200 ppm [6] | mortality at 200 ppm [5]

CCOC(=O)Oc1cnc(-c2nc3cc(C(F)(F)F)ncc3n2C)c(S(=O)(=O)CC)c1 [Compound P84, ethyl [5-ethylsulfonyl-6-[3-methyl-6-(trifluoromethyl)imidazo[4,5-c]pyridin-2-yl]-3-pyridyl] carbonate]
≥ 80%: mortality at 200 ppm [6]

CCS(=O)(=O)c1cc(OS(=O)(=O)C(F)(F)F)cnc1-c1nc2cc(C(F)(F)F)ncc2n1C [Compound P92, [5-ethylsulfonyl-6-[3-methyl-6-(trifluoromethyl)imidazo[4,5-c]pyridin-2-yl]-3-pyridyl] trifluoromethanesulfonate]
≥ 80%: mortality at 200 ppm [6]

CCS(=O)(=O)c1cc(O/N=C(\C)c2cc(F)cc(F)c2)cnc1-c1nc2cc(C(F)(F)F)ncc2n1C [Compound P96, (E)-1-(3,5-difluorophenyl)-N-[[5-ethylsulfonyl-6-[3-methyl-6-(trifluoromethyl)imidazo[4,5-c]pyridin-2-yl]-3-pyridyl]oxy]ethanimine]
≥ 80%: percent effect (mortality or growth inhibition) at 200 ppm [1] | percent effect (mortality or growth inhibition) at 200 ppm [3] | mortality at 200 ppm [6] | mortality at 200 ppm [5]

CCS(=O)(=O)c1cc(OC(F)(F)F)cnc1-c1nc2cc(C(F)(F)F)ncc2n1C [Compound P98, 2-[3-ethylsulfonyl-5-(trifluoromethoxy)-2-pyridyl]-3-methyl-6-(trifluoromethyl)imidazo[4,5-c]pyridine]
≥ 80%: percent effect (mortality or growth inhibition) at 200 ppm [1] | percent effect (mortality or growth inhibition) at 200 ppm [3] | mortality at 200 ppm [6] | mortality at 200 ppm [5]

CCS(=O)(=O)c1cc(OCCS(C)(=O)=O)ccc1-c1nc2cc(C(F)(F)F)ncc2n1C [Compound P102, 2-[2-ethylsulfonyl-4-(2-methylsulfonylethoxy)phenyl]-3-methyl-6-(trifluoromethyl)imidazo[4,5-c]pyridine]
≥ 80%: percent effect (mortality or growth inhibition) at 200 ppm [1] | mortality at 24 ppm [2] | mortality at 200 ppm [4]

CCS(=O)(=O)c1cc(OC(C)C)ccc1-c1nc2cc(C(F)(F)F)ncc2n1C [Compound P108, 2-(2-ethylsulfonyl-4-isopropoxy-phenyl)-3-methyl-6-(trifluoromethyl)imidazo[4,5-c]pyridine]
≥ 80%: percent effect (mortality or growth inhibition) at 200 ppm [1] | percent effect (mortality or growth inhibition) at 200 ppm [3] | mortality at 200 ppm [4] | mortality at 200 ppm [6] | mortality at 200 ppm [5]
